One substance from patent publication US20100166714A1, “CARDIOVASCULAR STEM CELLS, METHODS FOR STEM CELL ISOLATION, AND USES THEREOF” (THE GENERAL HOSPITAL CORPORATION, priority 2006, published 2010) can be followed below.

This experiment relates to FACS purified isl1+ progenitors spontaneously differentiated into smooth muscle cells. The experiment can be described thus: Calcium imaging (fluo-4) after Angiotensin II stimulation. Format: cell-based, mouse. Particulars: Angiotensin II 10^-7 M. The method, then: Calcium imaging. FACS purified isl1^+ progenitors from double heterozygous isl1-mER-Cre-mER/R26R were plated on fibronectin coated glass chamber slides and allowed to spontaneously differentiate in DMEM/F12 containing B27 supplement, 2% FBS, and 10 ng/ml EGF. After 5 days in culture, cells were incubated for 20 minutes with 5 μM Fluo-4 AM (Molecular Probes) in HEPES buffer. Cells were then rinsed three times in HEPES buffer, pH 7.4, containing 1.5 mM Ca^2+. Angiotensin II was applied at the final concentration of 10^−7 M. Calcium imaging was acquired every 100 msec in 100 sec installment and analyzed using Metamorph software (Universal Imaging Corporation). Each experiment included three installments to cover the period of the agonist effect.

With “Angiotensin II (DRVYIHPF; Angiotensin-2; UniProt P01019 25-32, looked up)”, the “measured cells in which exposure induced a progressive cytosolic [Ca2+]i increase” value (isl1+ progenitors from isl1-mER-Cre-mER/R26R mice after 5 days in culture, Fluo-4 AM) is listed as 4 of 25. Moreover, under “responding cells, diminished thereafter”, the “time at which the cytosolic [Ca2+]i increase reached the maximum” value is around 70 s.
